Key:
in vivo [1] = conditions: ICR, mouse, iv, 5 mg/kg
in vivo [2] = conditions: ICR, mouse, po, 15 mg/kg
in vivo [3] = conditions: ICR, mouse, iv, 5 mg/kg; remark: listed apart in the source
in vivo [4] = conditions: ICR, mouse, iv, 5 mg/kg; remark: listed apart in the source
in vivo [5] = conditions: ICR, mouse, iv, 5 mg/kg; remark: listed apart in the source
in vivo [6] = conditions: ICR, mouse, po, 15 mg/kg; remark: listed apart in the source
in vivo [7] = conditions: ICR, mouse, po, 15 mg/kg; remark: listed apart in the source
in vivo [8] = conditions: ICR, mouse, po, 15 mg/kg; remark: listed apart in the source
in vivo [9] = conditions: ICR, mouse, iv, 5 mg/kg; remark: listed apart in the source
in vivo [10] = conditions: ICR, mouse, iv, 5 mg/kg; remark: listed apart in the source
in vivo [11] = conditions: ICR, mouse, po, 15 mg/kg; remark: listed apart in the source

- clearance at 24 h (in vivo [1]): 73.3 mL/min/kg
- Tmax at 24 h (in vivo [2]): 18 min
- half-life at 24 h (in vivo [3]): 78 min
- AUC(0-t) at 24 h (in vivo [4]): 1150 ng·h/mL
- Vd at 24 h (in vivo [5]): 1.3 L/kg
- AUC(0-t) at 24 h (in vivo [6]): 110 ng·h/mL
- half-life at 24 h (in vivo [7]): 72 min
- Cmax at 24 h (in vivo [8]): 115 ng/mL
- Cmax at 24 h (in vivo [9]): 3850 ng/mL
- Tmax at 24 h (in vivo [10]): 6 min
- bioavailability at 24 h (in vivo [11]): 3.2%
SMILES: COc1cc(-c2n[nH]c3ncc(-c4ccc(C)c(NCCO)c4)cc23)cc(OC)c1OC
